Measured values as given in US9403855B2 (priority 2010, dated 2016).
“And” between values parts separate entries of the source, which are not always exact repeats. Equal entries are not always repeated.

Assays:
[1] = system: A/Vietnam/1194/2004 RG14 (H5N1); assay: microbe, parasite or virus in culture; type: cell-based, Influenza virus A/Vietnam/1194/2004 RG14 (H5N1); conditions: Influenza A virus, H5N1, read-out: EC50 (anti-influenza activity)
A/Udorn/307/1972 (H3N2) = assay: microbe, parasite or virus in culture; type: cell-based, Influenza virus A/Udorn/307/1972 (H3N2); conditions: Influenza A virus, H3N2, read-out: EC50 (anti-influenza activity)
[2] = system: A/California/7/2009 (pandemic H1N1); assay: microbe, parasite or virus in culture; type: cell-based, Influenza virus A/California/7/2009 (pandemic H1N1); conditions: Influenza A virus, H1N1, read-out: EC50 (anti-influenza activity)
in vitro = conditions: human
A/WSN/1933 (H1N1) = assay: microbe, parasite or virus in culture; type: cell-based, Influenza virus A/WSN/1933 (H1N1); conditions: Influenza A virus, read-out: EC50 (anti-influenza activity)
[3] = system: mixed 293T cells expressing 274H and 274Y neuraminidase of A/Hanoi/30408/2005 (H5N1); type: binding
[4] = system: wild type (274H) neuraminidase of A/Hanoi/30408/2005 (H5N1) on 293T cells; type: binding
[5] = system: 274H influenza virus (WSN), immobilized; type: binding
[6] = target: neuraminidase of A/Udorn/307/1972 (H3N2) (Influenza A virus, UniProt P0DOF6); assay: biochemical; set-up: species or system Influenza virus A/Udorn/307/1972 (H3N2)
[7] = target: neuraminidase of A/WSN/1933 (H1N1) (Influenza A virus, UniProt P03470); assay: biochemical; set-up: species or system Influenza virus A/WSN/1933 (H1N1)
[8] = target: neuraminidase of A/California/7/2009 (pandemic H1N1) (Influenza A virus, UniProt C3W6G3); assay: biochemical; set-up: species or system Influenza virus A/California/7/2009 (pandemic H1N1)
[9] = in vivo; cited from earlier work

Sequence of neuraminidase of A/Udorn/307/1972 (H3N2) (P0DOF6 whole entry, looked up): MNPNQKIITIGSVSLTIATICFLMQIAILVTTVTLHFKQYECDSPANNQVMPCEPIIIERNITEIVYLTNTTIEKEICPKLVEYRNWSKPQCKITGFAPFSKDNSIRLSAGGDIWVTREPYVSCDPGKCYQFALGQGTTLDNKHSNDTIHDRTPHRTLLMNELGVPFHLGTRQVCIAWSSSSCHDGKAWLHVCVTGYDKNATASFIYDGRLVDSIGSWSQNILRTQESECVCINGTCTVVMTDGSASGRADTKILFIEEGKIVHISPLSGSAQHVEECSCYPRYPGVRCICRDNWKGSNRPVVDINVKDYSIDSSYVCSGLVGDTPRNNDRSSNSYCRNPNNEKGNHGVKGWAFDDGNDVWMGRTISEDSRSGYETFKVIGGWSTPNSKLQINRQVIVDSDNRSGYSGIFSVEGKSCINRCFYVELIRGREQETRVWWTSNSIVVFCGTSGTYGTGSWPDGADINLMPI
Sequence of neuraminidase of A/WSN/1933 (H1N1) (P03470 whole entry, looked up): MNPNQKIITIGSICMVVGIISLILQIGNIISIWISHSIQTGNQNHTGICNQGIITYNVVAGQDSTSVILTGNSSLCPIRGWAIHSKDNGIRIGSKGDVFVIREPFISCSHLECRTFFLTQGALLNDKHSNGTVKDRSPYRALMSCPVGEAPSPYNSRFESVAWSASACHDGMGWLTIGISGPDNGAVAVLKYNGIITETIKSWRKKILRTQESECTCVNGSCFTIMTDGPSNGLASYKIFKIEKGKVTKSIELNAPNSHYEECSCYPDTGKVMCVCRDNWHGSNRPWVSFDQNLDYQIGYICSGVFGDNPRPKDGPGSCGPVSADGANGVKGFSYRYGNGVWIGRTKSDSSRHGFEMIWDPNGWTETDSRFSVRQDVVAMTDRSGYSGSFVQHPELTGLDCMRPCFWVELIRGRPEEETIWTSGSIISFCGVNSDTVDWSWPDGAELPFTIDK

CCC(CC)O[C@@H]1C=C(C(=O)O)C[C@H](N)[C@H]1NC(C)=O [Oseltamivir acid, oseltamivir carboxylic acid, reference compound]
EC50 [1]: 1250 ± 440 nM
EC50 (A/Udorn/307/1972 (H3N2)): 3 ± 1.8 nM
EC50 [2]: 76 nM
CC50 (in vitro): > 100000 nM
EC50 (A/WSN/1933 (H1N1)): 12.2 ± 2.3 nM

CC(=O)N[C@H]1[C@H]([C@H](OC(=O)NCc2cn(CCCCCNC(=O)CCCCC3SC[C@@H]4NC(=O)N[C@H]34)nn2)[C@H](O)CO)OC(C(=O)O)=C[C@@H]1NC(=N)N (stereo partly shown) [ZB]
melting point: 170 to 172 °C
percentage of ZB labeled cells [3]: 84.4% and 84.62% and 86.07% and 83.58%
percentage of ZB labeled cells [4]: 83.95%
residual ZB binding in OC competition [5]: about 3%

CC(=O)N[C@H]1[C@H]([C@H](O)[C@H](O)CO)OC(P(=O)(O)O)=C[C@@H]1N [1a, (5-Acetamido-4-amino-6-(1,2,3-hydroxy)propyl-4,5,6-trihydropyran-2-yl) phosphonic acid]
IC50 [6]: 6.4 nM
EC50 [1]: 978 nM
IC50 [7]: 0.65 nM
EC50 (A/Udorn/307/1972 (H3N2)): 55 nM
EC50 [2]: 20.3 nM
CC50 (in vitro): > 30000 nM
IC50 [8]: 0.9 nM
EC50 (A/WSN/1933 (H1N1)): 1.3 nM

CC(=O)N[C@H]1[C@H]([C@H](O)[C@H](O)CO)OC(P(=O)(O)O)=C[C@@H]1NC(=N)N [1b, (5-Acetamido-4-guanidino-6-(1,2,3-hydroxy)propyl-4,5,6-trihydropyran-2-yl) phosphonic acid]
IC50 [6]: 5.2 nM
EC50 [1]: 1700 ± 500 nM
IC50 [7]: 1.2 nM
EC50 (A/Udorn/307/1972 (H3N2)): 32 ± 23 nM
EC50 [2]: 26.5 nM
CC50 (in vitro): > 50000 nM
IC50 [8]: 0.8 nM
EC50 (A/WSN/1933 (H1N1)): 2.4 nM

CC(=O)N[C@H]1[C@H]([C@H](O)[C@H](O)CO)OC(C(=O)O)=C[C@@H]1N=C(N)N [Zanamivir, reference compound]
EC50 [1]: 16400 ± 2980 nM
Bioavailability [9]: 2%
EC50 (A/Udorn/307/1972 (H3N2)): 41 ± 6 nM
EC50 [2]: 267 nM
CC50 (in vitro): > 100000 nM
EC50 (A/WSN/1933 (H1N1)): 23.5 ± 8.5 nM
